Laboratory results from ChEMBL document CHEMBL5608197, “Optimization of pyrazolopyridine 4-carboxamides with potent antimalarial activity for which resistance is associated with the P. falciparum transporter ABCI3” (Eur J Med Chem, 2024).
Values after ≈ are worked out from the molar mass of the structure shown.

What was measured:
Plasmodium falciparum [1] = experiment: Antiplasmodial activity against asexual blood stage of Plasmodium falciparum 3D7 assessed as inhibition of parasite growth incubated for 72 hrs by LDH assay; type: functional, organism-based; conditions: 3D7, 72 h
[2] = Cytotoxicity against human HepG2 cells assessed as inhibition of cell growth incubated for 48 hrs by CellTiter-Glo luminescence assay; type: toxicity, cell-based
Plasmodium falciparum [3] = experiment: Antiplasmodial activity against ring stage of Plasmodium falciparum 3D7 expressing ABCI3-HAreg assessed as inhibition of parasite proliferation incubated for 72 hrs in presence of ABCI3 inhibitor, GlcN by SYBR dye based flow cytometry; type: functional, organism-based; conditions: 3D7, 72 h
[4] = Lipophilicity, elogD of the compound in 1-Octanol/PBS at pH 7.4 at 7.5 uM incubated for 2 hrs by miniaturized shake flask method; type: physicochemical
[5] = Intrinsic clearance in rat hepatocytes at 1 uM measured per million cells for 90 mins by LC-MS/MS analysis; type: ADME, cell-based, Hepatocyte; conditions: read-out: CLH
[6] = Intrinsic clearance in human liver microsomes at 1 uM measured for 60 mins by LC-MS/MS analysis; type: ADME, Microsome; conditions: read-out: CLH
[7] = Aqueous solubility of the compound in PBS buffer at pH 7.4 at 200 uM incubated for 2 hrs under shaking condition by miniaturized shake flask method; type: physicochemical
Plasmodium falciparum [8] = experiment: Antiplasmodial activity against Plasmodium falciparum Dd2 infected in erythrocytes assessed as inhibition of parasite growth incubated for 72 hrs by [3H]hypoxanthine incorporation based microbeta counting analysis; type: functional, organism-based; conditions: Dd2, Erythrocyte
Plasmodium falciparum [9] = experiment: Antiplasmodial activity against multidrug-resistant Plasmodium falciparum Dd2 harboring CARL-I1139K mutant infected in erythrocytes assessed as inhibition of parasite growth incubated for 72 hrs by [3H]hypoxanthine incorporation based microbeta counting analysis; type: functional, organism-based; conditions: Dd2, Erythrocyte
Plasmodium falciparum [10] = experiment: Antiplasmodial activity against multidrig-resistant Plasmodium falciparum Dd2 harboring eEF2Y-I86N mutant infected in erythrocytes assessed as inhibition of parasite growth incubated for 72 hrs by [3H]hypoxanthine incorporation based microbeta counting analysis; type: functional, organism-based; conditions: Dd2, Erythrocyte
Plasmodium falciparum [11] = experiment: Antiplasmodial activity against multidrug-resistant Plasmodium falciparum Dd2 harboring PI4K-S743F mutant infected in erythrocytes assessed as inhibition of parasite growth incubated for 72 hrs by [3H]hypoxanthine incorporation based microbeta counting analysis; type: functional, organism-based; conditions: Dd2, Erythrocyte
Plasmodium falciparum [12] = experiment: Antiplasmodial activity against multidrug-resistant Plasmodium falciparum Dd2 harboring cyt b-I22L mutant infected in erythrocytes assessed as inhibition of parasite growth incubated for 72 hrs by [3H]hypoxanthine incorporation based microbeta counting analysis; type: functional, organism-based; conditions: Dd2, Erythrocyte
Plasmodium falciparum [13] = experiment: Antiplasmodial activity against multidrug-resistant Plasmodium falciparum Dd2 harboring DHODH-C276F mutant infected in erythrocytes assessed as inhibition of parasite growth incubated for 72 hrs by [3H]hypoxanthine incorporation based microbeta counting analysis; type: functional, organism-based; conditions: Dd2, Erythrocyte

SMILES	EC50 (Plasmodium falciparum [1]) [µM]	CC50 at 48 h [2] [µM]	other results
Cc1cc(C)c(NC(=O)c2cc(C3CC3)nc3c2c(C)nn3C(C)(C)C)c(Cl)c1	1.13	> 40	
CCN(CC)CCCC(C)Nc1ccnc2cc(Cl)ccc12 (stereo not drawn) [CHLOROQUINE]			EC50 (Plasmodium falciparum [3]): 0.0113 µM
CC(C)(C)n1nc(-c2ccccc2)c2c(C(=O)N3CCOc4ccccc43)cc(C3CC3)nc21	2.18	> 40	
Cc1nn(C(C)(C)C)c2nc(C3CC3)cc(C(=O)N3CCOc4ncccc43)c12	2.5	> 10	
Cc1nn(C)c2nc(C3CC3)cc(C(=O)N3CCOc4ccccc43)c12	> 10		
Cc1nn(C(C)(C)C)c2nc(C3CC3)cc(C(=O)N3CCNc4ccccc43)c12	0.181	> 40	logD at 2 h, 7.5 µM [4]: 4.8; hepatocyte CLint at 1 µM [5]: 123 µL/min/1e6 cells; microsomal CLint at 1 µM [6]: 471 µL/min/mg; solubility thermodynamic at 2 h, 200 µM [7]: 3.5 µM (≈ 1.36 µg/mL)
Cc1nn(C(C)(C)C)c2nc(C(C)C)cc(C(=O)N3CCOc4ccccc43)c12	0.74	> 40	
CCc1cc(C(=O)N2CCOc3ccccc32)c2c(C)nn(C(C)(C)C)c2n1	0.843	> 40	
CC1CN(C(=O)c2cc(-c3ccccc3)nc3c2cnn3C(C)C)CCO1 (stereo not drawn)	1	> 40	
CC(C)(C)n1nc(Br)c2c(C(=O)N3CCOc4ccccc43)cc(C3CC3)nc21	0.155	> 40	
CC1(C)c2nc(-c3ccc(F)cc3)c(Nc3ccc(F)cc3)n2CCN1C(=O)CN [GANAPLACIDE]			EC50 (Plasmodium falciparum [8]): 0.017 µM; EC50 (Plasmodium falciparum [9]): 1.92 µM
COc1ccccc1CNC(=O)c1cc(C2CC2)nc2c1c(C)nn2C(C)(C)C	0.463	> 40	
COc1ccccc1NC(=O)c1cc(C2CC2)nc2c1c(C)nn2C(C)(C)C	2.3	> 40	
COc1nn(C(C)(C)C)c2nc(C3CC3)cc(C(=O)N3CCOc4ccccc43)c12	0.123	> 40	logD at 2 h, 7.5 µM [4]: > 6.4; hepatocyte CLint at 1 µM [5]: 19 µL/min/1e6 cells; microsomal CLint at 1 µM [6]: 300 µL/min/mg; solubility thermodynamic at 2 h, 200 µM [7]: < 2.5 µM
Cc1nn(C(C)(C)C)c2nc(C3CC3)cc(C(=O)N3CCc4ccccc43)c12	2.48	> 40	
COc1nn(C(C)C)c2nc(C3CC3)cc(C(=O)N3CCOc4ccncc43)c12	0.015	28.7	logD at 2 h, 7.5 µM [4]: 3.7; hepatocyte CLint at 1 µM [5]: > 92 µL/min/1e6 cells; microsomal CLint at 1 µM [6]: > 462 µL/min/mg; solubility thermodynamic at 2 h, 200 µM [7]: 161 µM (≈ 63.3 µg/mL)
COc1nn(C(C)(C)C)c2nc(C3CC3)cc(C(=O)N3CCOc4ccncc43)c12	0.005	7.26	logD at 2 h, 7.5 µM [4]: 5.1; hepatocyte CLint at 1 µM [5]: 87 µL/min/1e6 cells; microsomal CLint at 1 µM [6]: 423 µL/min/mg; solubility thermodynamic at 2 h, 200 µM [7]: 19 µM (≈ 7.74 µg/mL)
Cc1nn(C(C)(C)C)c2nc(C3CC3)cc(C(=O)N3CCOc4cnccc43)c12	2.07		
Cc1nn(C(C)(C)C)c2nc(C3CC3)cc(C(=O)N3CCOc4cccnc43)c12	0.856	> 10	
Cc1nn(C(C)(C)C)c2nc(-c3ccccc3)cc(C(=O)N3CCOc4ccccc43)c12	0.453	> 40	
CC(C)(C)n1ncc2c(C(=O)N3CCOc4ccccc43)cc(C3CC3)nc21	0.49	> 40	
Cc1cc(C)c(NC(=O)c2cc(C)nc3c2c(C)nn3C)c(Cl)c1	0.17	> 40	
CCc1nn(C(C)(C)C)c2nc(C3CC3)cc(C(=O)N3CCOc4ccccc43)c12	0.288	> 10	
Cc1n[nH]c2nc(C3CC3)cc(C(=O)N3CCOc4ccccc43)c12	> 10		

SMILES	EC50 (Plasmodium falciparum [1]) [µM]	CC50 at 48 h [2] [µM]	other results
Cc1nn(C(C)(C)C)c2nc(C3CC3)cc(C(=O)Nc3ccccc3)c12	3.85	> 10	
Cc1nn(C(C)C)c2nc(C(C)C)cc(C(=O)Nc3nnc4ccccn34)c12	0.86		
Cc1nn(C(C)(C)C)c2nc(C3CC3)cc(C(=O)N3CCCCC3)c12	0.635	> 40	
CC(C)c1nn(C(C)(C)C)c2nc(C3CC3)cc(C(=O)N3CCOc4ccccc43)c12	0.58	> 40	
CC(C)(C)n1nc(C2CC2)c2c(C(=O)N3CCOc4ccccc43)cc(C3CC3)nc21	0.079	> 10	
Cc1nn(C(C)(C)C)c2nc(C3CC3)cc(C(=O)N3CCOCC3)c12	2.33	> 40	
Cc1nn(-c2ccccc2)c2nc(C3CC3)cc(C(=O)N3CCOc4ccccc43)c12	1.12	> 40	
Cc1cc(C(=O)N2CCOc3ccccc32)c2c(C)nn(C(C)(C)C)c2n1	5.63	> 40	
O=C(NCCN1CCCC1)c1cc(-c2ccc(CN3CCOCC3)cc2)nc2ccc(F)cc12 [CABAMIQUINE]			EC50 (Plasmodium falciparum [10]): 0.85 µM; EC50 (Plasmodium falciparum [8]): 0.001 µM
COc1ccccc1N(C)C(=O)c1cc(C2CC2)nc2c1c(C)nn2C(C)(C)C	2.36	> 10	
CS(=O)(=O)c1ccc(-c2cnc(N)c(-c3ccc(C(F)(F)F)nc3)c2)cc1 [MMV-048]			EC50 (Plasmodium falciparum [11]): 0.09 µM; EC50 (Plasmodium falciparum [8]): 0.012 µM
COc1ccccc1CNC(=O)c1cc(C2CC2)nc2c1cnn2C(C)C	0.68	> 40	
Cc1nn(C(C)C)c2nc(C3CC3)cc(C(=O)N3CCOc4ccccc43)c12	0.31	> 40	logD at 2 h, 7.5 µM [4]: 4.5; hepatocyte CLint at 1 µM [5]: > 92 µL/min/1e6 cells; microsomal CLint at 1 µM [6]: 424 µL/min/mg; solubility thermodynamic at 2 h, 200 µM [7]: 10 µM (≈ 3.76 µg/mL)
COc1cc2[nH]c(C)c(-c3ccc(Oc4ccc(OC(F)(F)F)cc4)cc3)c(=O)c2cc1Cl			EC50 (Plasmodium falciparum [8]): 0.014 µM; EC50 (Plasmodium falciparum [12]): 0.12 µM
Cc1nn(C(C)(C)C)c2nc(C3CC3)cc(C(=O)Nc3nnc4ccccn34)c12	> 10		
Cc1nn(C(C)(C)C)c2nc(C3CC3)cc(C(=O)N3CCOc4ccc(F)cc43)c12	0.13	9.67	logD at 2 h, 7.5 µM [4]: 5.8; hepatocyte CLint at 1 µM [5]: 22 µL/min/1e6 cells; microsomal CLint at 1 µM [6]: 100 µL/min/mg; solubility thermodynamic at 2 h, 200 µM [7]: 2.8 µM (≈ 1.14 µg/mL)
Cc1nn(C(C)(C)C)c2nc(C3CC3)cc(C(=O)N3CCN(C)c4ccccc43)c12	0.257	> 40	logD at 2 h, 7.5 µM [4]: 5.4; hepatocyte CLint at 1 µM [5]: 65 µL/min/1e6 cells; microsomal CLint at 1 µM [6]: 387 µL/min/mg; solubility thermodynamic at 2 h, 200 µM [7]: 3 µM (≈ 1.21 µg/mL)
Cc1nn(C(C)(C)C)c2nc(C3CC3)cc(C(=O)N3CCOc4cc(F)ccc43)c12	1.05	> 10	logD at 2 h, 7.5 µM [4]: 5.9; hepatocyte CLint at 1 µM [5]: 23 µL/min/1e6 cells; microsomal CLint at 1 µM [6]: 160 µL/min/mg; solubility thermodynamic at 2 h, 200 µM [7]: < 2.5 µM
Cc1nn(C(C)(C)C)c2nc(C3CC3)cc(C(=O)N3CCN(C)CC3)c12	0.545	> 40	
COc1cc(C(=O)N2CCOc3ccccc32)c2c(C)nn(C(C)(C)C)c2n1	1.04	> 40	
Cc1cc(Nc2ccc(S(F)(F)(F)(F)F)cc2)n2nc(C(C)(F)F)nc2n1 [DSM-265]			EC50 (Plasmodium falciparum [8]): 0.006 µM; EC50 (Plasmodium falciparum [13]): 0.1 µM
CC(C)(C)n1nc(Cl)c2c(C(=O)N3CCOc4ccccc43)cc(C3CC3)nc21	0.26	> 40	logD at 2 h, 7.5 µM [4]: > 5.9; hepatocyte CLint at 1 µM [5]: 34 µL/min/1e6 cells; microsomal CLint at 1 µM [6]: 155 µL/min/mg; solubility thermodynamic at 2 h, 200 µM [7]: < 2.5 µM
Cc1nn(C(C)(C)C)c2nc(C3CC3)cc(C(=O)N3CCCc4ccccc43)c12	0.164	> 40	logD at 2 h, 7.5 µM [4]: 5.9; hepatocyte CLint at 1 µM [5]: 45 µL/min/1e6 cells; microsomal CLint at 1 µM [6]: 277 µL/min/mg; solubility thermodynamic at 2 h, 200 µM [7]: 2.8 µM (≈ 1.09 µg/mL)
